Laboratory results taken from patent US10144726B2, “Modulators of the p70S6 kinase for use in the treatment of brain disorders and triple-negative breast cancer” (SENTINEL ONCOLOGY LIMITED, priority 2015, dated 2018).

Experiments:
[1] = tested on: audiogenic seizures in FXS (Fmr1 KO) mice; experiment: Audiogenic seizure assay, in vivo model of Fragile X Syndrome; parameters: species or system FVB background; details: 25 mg/kg QD × 7 PO
Text: Seizures occur in conjunction with FXS and autism in up to one-quarter of children with these disorders (Berry-Kravis E (2002) Epilepsy in fragile X syndrome. Dev. Med. Child Neurol. 44(11):724-728). […] The audiogenic seizure assay (AGS) is a well documented mouse model of FXS (Audiogenic seizures susceptibility in transgenic mice with fragile X syndrome, Epilepsia. 2000 January; 41(1):19-23). In such a model it is possible to dose compounds to observe effects on susceptibility of the mice to audiogenic seizures. The following AGS experiment was set up to test the efficacy of compounds of this application:
Strain of FXS Mouse Used: FVB Background
Vehicle used: 10% DMSO/90% hydroxypropyl-β-cyclodextrin (20% w/v aqueous)
Animals were assessed in AGS following 7 consecutive days of dosing.
The experimental chamber consisted of a plastic cage of dimensions 25×25×47 cm in which a doorbell (Electrical bell Heath Zenith, model 172C-A) had been mounted on the cage roof.
Mice were taken from their housing room one by one and transferred into the experimental chamber and allowed to explore the novel environment (basal noise ˜65 dB) for a period of 30 seconds after which point the bell was rung (124 dB).
The resulting motor responses were classified using a scale modified from the one originally described by Jobe et al. (1973): no response (NR: pause or continuous exploration), wild running (WR), clonic seizure (CS), tonic seizure (TS), respiratory arrest and/or death (RA). In order to define the intensity of the behavioral response a seizure severity score was used (SSS) (Musumeci et al., 2000), consisting of a score assigned to each animal depending on its behavioral response (NR=0, WR=1, CS=2, TS=3, RA=4). To determine the SSS for a treatment group the scores of the individual mice are summed. The motor response rate is defined as the percentage of animals per group responding to the stimulus.

MDA-MB-231 cells = experiment: Tumour initiation and metastasis in an in vivo model of triple negative breast cancer (MDA-MB-231, mammary fat pad); parameters: species or system female athymic nude mice
Text: In order to test the efficacy of an inhibitor of S6K1 in an in vivo model of tumour initiation and metastasis, the following experiment was established:
A total of 30 female athymic nude mice (Hsd:Athymic Nude-Foxn1^nu) were purchased from Harlan (UK) and acclimatised for 7 days prior to study commencement. Animals were housed in IVC cages (5 per cage) with individual mice identified by ear punch. All animals were allowed free access to a standard certified commercial diet and sanitised water during the study. The holding room was maintained under standard conditions: 20-24° C., 40-70% humidity and a 12 h light/dark cycle.
On day −1, animals were randomly assigned to treatment groups as indicated in the table below, and drug treatment commenced. On day 0, MDA-MB-231 cells (1×10^6 in matrigel) were implanted into the second mammary fat pad.
The dosing route was PO and the formulation was as follows: 10% DMSO/90% hydroxypropyl-β-cyclodextrin (20% w/v aqueous)
(1) Time to palpation of tumour (latency) (2) tumour volume (3) tumour and organ weights as a measure of metastasis (4) visual appearance of metastatic nodules in the lungs

MDA-MB-231 (luc) cells = experiment: Control of brain metastases arising from MDA-MB-231 (luc) cells after intra-cardiac injection; format: in vivo
Text: In order to test the efficacy of an inhibitor of S6K1 in preventing brain metastases arising from TNBC cells, an in vivo mouse model was established:
Using a luciferase-tagged TNBC cell line (MDA-MB-231 (luc)) it was possible to track the spread of metastatic cells to the brain and other major organs via mouse whole-body imaging.
The MDA-MB-231(luc) cell-line was derived from MDA-MB-231 cells originally purchased from ATCC. These cells were stably transfected with pGL4.51 (Promega) using Lipofectamine 2000 (Life Technologies). Stably transfected colonies were selected for using neomycin and the most highly expressing clone was expanded. The cells have similar in vivo growth characteristics as the parental MDA-MB-231 cells.
Female athymic mice (Hsd:Athymic Nude-Foxn1^nu) were purchased from Harlan (UK) and acclimatised for 7 days prior to study commencement. Animals were housed in
The dosing route was p.o. and the formulation was as follows: 10% DMSO/90% hydroxypropyl-β-cyclodextrin (20% w/v aqueous)
On day 0 animals were anaesthetized and injected with 1×10^5 MDA-MB-231 (luc) cells directly into the heart. Intra-cardiac injection was chosen as this method leads to brain metastases. On day +1 animals were imaged using a Xenogen IVIS machine (following IP injection of 150 mg/kg) of D-luciferin). Evidence of light only in the cardiac area was indicative of a failed implantation and these animals were removed from the study. The experiment was commenced with 7 animals per treatment group to guarantee 5 animals per group completed the study.
Animals were imaged on 3 occasions during the study: 24 hours following intracardiac injection, 35 days after implantation and at the end of the study (70 days after implantation). For imaging, animals were first injected i.p. with D-luciferin (150 mg/kg) and 10 minutes later the animals were imaged under anaesthesia.
At the end of the 70 days, animals were imaged using the same method as described at 35 days. Following this the animals were then sacrificed and brain, liver and lungs were removed and imaged individually for metastatic spread.

[2] = 250 mg/kg p.o. QD 21 days, vs vehicle

Question: How did the “CS (clonic seizure), number of animals” value [1] turn out when `C[C@@H](Nc1cnc2cc(-c3cn[nH]c3)ccc2n1)c1cccc(Cl)c1` [Example 15] was run?
Answer: The value was 0.

Question: What about the “NR (no response), number of animals” value [1] of the same molecule?
Answer: Its value is 6.

Question: And the “RA (respiratory arrest and/or death), number of animals” value [1]?
Answer: The value was 0.

Question: What about the “SSS (seizure severity score, summed for the group)” value [1] of the same molecule?
Answer: Its value is 2.

Question: What about the “TS (tonic seizure), number of animals” value [1] of the same molecule?
Answer: The value was 0.

Question: And the “WR (wild running), number of animals” value [1]?
Answer: The value was 2.

Question: What about the “Incidence of audiogenic seizures and severity of response” value ([1]; vs vehicle, p<0.01 by Fisher's test) of the same molecule?
Answer: Its value is “reduced”.

Question: What about the “Mean no. of nodules per lung” value (MDA-MB-231 cells; 250 mg/kg QD × 21, at necroscopy) of the same molecule?
Answer: Its value is 1.

Question: What about the “Lung weight at day 21” value (MDA-MB-231 cells; [2]) of the same molecule?
Answer: The value was “reduction in weight of lungs”.

Question: And the “Rate of tumour incidence” value (MDA-MB-231 cells; [2])?
Answer: Its value is “decreases”.

Question: And the “Time to palpation of tumour (latency)” value (MDA-MB-231 cells; [2])?
Answer: The value was “delays”.

Question: And the “Tumour weight at day 21” value (MDA-MB-231 cells; [2])?
Answer: The value was “weighed significantly less”.

Question: And the Tumour volume (MDA-MB-231 cells; 250 mg/kg p.o. QD 21 days, vs vehicle, p<0.05)?
Answer: Its Tumour volume is “reduction in volume of tumours which is statistically significant over vehicle”.

Question: And the “Incidence of metastasis Brain” value (MDA-MB-231 (luc) cells; 125 mg/kg p.o. BID x 70 days)?
Answer: The value was 0%.

Question: And the “Incidence of metastasis Liver” value (MDA-MB-231 (luc) cells; 125 mg/kg p.o. BID x 70 days)?
Answer: The value was 0%.

Question: And the “Incidence of metastasis Lung” value (MDA-MB-231 (luc) cells; 125 mg/kg p.o. BID x 70 days)?
Answer: The value was 40%.

Question: What about the “No. deaths on study” value (MDA-MB-231 (luc) cells; 125 mg/kg p.o. BID x 70 days) of the same molecule?
Answer: Its value is 0.

Question: And the “Animals with visible metastases, whole body imaging” value (MDA-MB-231 (luc) cells; 125 mg/kg p.o. BID, at 35 days)?
Answer: Its value is 0 out of 5.

Question: What about the Tolerability (MDA-MB-231 (luc) cells; 70 consecutive days of BID dosing, no treatment related deaths or adverse clinical signs) of the same molecule?
Answer: Its Tolerability is “well-tolerated”.
